As for `O=[N+]([O-])C=C(NC1CCCCC1)NS(=O)(=O)c1cnccc1NC1CCCCC1`, the logP stood at 1.59.

In turn, `CCCCCCNC(=C[N+](=O)[O-])NS(=O)(=O)c1cnccc1Nc1cccc(C)c1` gave a logP of 1.66.

The compound `CCCCCCCCNc1ccncc1S(=O)(=O)NC(=C[N+](=O)[O-])NCCCCCC` returned a logP of 2.31.

As to `CCCCCCCCNC(=C[N+](=O)[O-])NS(=O)(=O)c1cnccc1NCCCCCCCC`, the logP is 2.86.

`CCCCCCCCNC(=C[N+](=O)[O-])NS(=O)(=O)c1cnccc1NCCCCCC`: the logP is 2.27.

`CCNc1ccncc1S(=O)(=O)NC(=C[N+](=O)[O-])NC(C)C`: the logP was -0.48.

`CCCCCCCNC(=C[N+](=O)[O-])NS(=O)(=O)c1cnccc1NCCCCCCC` returned a logP of 2.3.

`CCCCCCNC(=C[N+](=O)[O-])NS(=O)(=O)c1cnccc1NCCCCCC` had a logP of 1.67.

Consider `CCCCCCCNC(=C[N+](=O)[O-])NS(=O)(=O)c1cnccc1NCCCCCC`, for which the logP is 1.97.

In turn, `CCCCCCCCNc1ccncc1S(=O)(=O)NC(=C[N+](=O)[O-])NCCCCCCC` displayed a logP of 2.59.

In turn, `CCCCCCCNc1ccncc1S(=O)(=O)NC(=C[N+](=O)[O-])NCCCCCC` gave a logP of 1.99.

These data come from the SangsterLogP compilation.
